Source: patent publication US11707440B2 (priority 2017, dated 2023)

Legend:
[1] = system: subjects with MDD at imminent risk for suicide; experiment: MADRS suicide item, […]2001; assay type: in vivo, human; conditions: 84 mg, ITT Analysis Set
Source text: • a. Changes from baseline to Day 2 and Day 25 for the MADRS total score • b. Changes from baseline to Day 1 4-hours postdose, Day 2 and Day 25 for the MADRS Suicide Item • c. Changes from baseline to Day 1 4-hours postdose, Day 2, and Day 25 for the clinical global judgment of suicide risk from the Suicide Ideation and Behavior Assessment Tool (SIBAT) • d. Sustained response (Onset of Clinical Response) defined as at least 50% reduction from baseline in MADRS total score with onset on Day 1 that is maintained through the end of the double-blind phase (Day 25) • e. Changes from baseline to Day 1 4-hours postdose, Day 2, and Day 25 for the Beck Scale for Suicidal Ideation (BSS) • f. Changes from baseline to Day 1 4-hours postdose and Day 25 for the Beck Hopelessness Scale
Results of the change from baseline over time for the suicide item from the MADRS assessment can be found in Attachment 1.

[2] = system: female Sprague-Dawley rats, PCG/RSC of the brain; experiment: 14-day repeated dose neurotoxicity study, intranasal instillation; conditions: 14-day study, 54 mg/day
Description: Esketamine HCl was administered into each nostril of female rats at a volume of 50 μl per nostril either once, twice or thrice daily by intranasal instillation for 14 consecutive days at doses of 0 (vehicle), 18, 36 or 54 mg/day. At each instillation, the second nostril was dosed immediately after the first nostril. The interval between subsequent instillations into both nostrils was 5 minutes when dosed 2 or 3 times per day.
The vehicle control group received 3 subsequent intranasal instillations of the vehicle into both nostrils (50 μL per nostril) with 5-minute intervals for 14 consecutive days.
The positive control group received a single subcutaneous injection of (+)MK-801 at 48 hours prior to the necropsy of the vehicle control and esketamine HCl-treated animals.
Each group of main study animals consisted of 12 female rats. Four satellite animals were added to the esketamine HCl-dosed groups of main study animals for TK purposes. The plasma exposure to esketamine was measured in these animals on the first and the last day of dosing at various time points up to and including 24 hours after the first instillation.
Due to logistic constraints associated with the whole body perfusion procedure of the animals at necropsy, a staggered start was applied to the study. Consequently, all 5 groups of main study animals were divided into three subgroups of 4 animals each. For each of these subgroups treatment started on a different day. The perfusion procedure is the is the same as described for the single dose study.
All vehicle- and esketamine HCl-treated animals were sacrificed at 48 hours after the last instillation. […] The brain tissue of the vehicle control-, positive control- and esketamine HCl-treated rats were processed at the same time and handled in the same way in batches of 4 animals per group.
Furthermore, clinical observations were recorded for the esketamine HCl-dosed rats on the day of dosing at 0 till 5 minutes, 15 and 30 minutes, and at 1, 2, 4, 6 hours post-dose, at the end of the working day and at 24 hours after the last instillation in the single dose study and on the first day of dosing, after one week and towards the end of the dosing period in the repeated dose study. Body weight and body weight gain were measured daily. Food consumption was measured weekly in the repeated dose study.
On the day of terminal kill, a complete physical examination was performed on the rats in fasted condition and body weight was recorded. The surviving animals were anaesthetized by inhalation of an isoflurane (IsoFlo® Zoetis, Belgium)/oxygen mixture and killed by exsanguination via the carotid artery. […] All terminally killed rats or those killed pre-terminally were perfused with 4% paraformaldehyde in the single dose study and with glutaraldehyde 3% in potassium phosphate buffer 0.09 M with 1.4% sucrose in the repeated dose study.
Brain tissue was sampled and processed routinely. The trimmed and embedded tissue was sectioned and stained with hematoxylin-eosin (HE). Histoprocessing and staining were carried out in three batches of 4 animals per group (each batch thus containing 4 animals from vehicle control-, positive control- and the three esketamine HCl-treated groups). In the single dose study duplicate brain sections were stained with Fluoro-Jade (FJ).
All tissues showing gross abnormalities were examined […]. Histopathological examination was performed on 7 levels of brain tissue according to Bolon (2013. Toxicol. Pathol. 41(7), 1028-1048) from the vehicle control-, positive control-, and high dose esketamine HCl-treated groups in the single dose study, and in all groups in the repeated dose study.

[3] = system: subjects with MDD at imminent risk for suicide; experiment: SIBAT clinical global judgment of suicide risk, […]2001; assay type: in vivo, human; conditions: Baseline(DB), predose Day 1; ITT analysis set
Source text: The clinical global judgment of suicide risk (Module 8) summarizes clinician overall judgment of suicide risk as derived from information gathered from the full SIBAT tool. It operates like numerous other CGI-severity scales that have been used in other psychiatric studies. Change in the clinical global judgment of suicide risk is designed to directly identify clinical meaningful changes in suicidal ideation and to permit classification of suicide risk.
The analysis of the change in SIBAT score was based on an ANCOVA model on ranks of change in SIBAT with treatment, antidepressant therapy, and analysis center as factors, and baseline value (unranked) as a covariate. There was a significant difference (two-sided […]) between the two treatment groups when comparing the mean rank of change from baseline at Day 1: 4-hours postdose in favor of esketamine 84 mg See, Table 58. See, FIG. 39. […] This difference was not evident at the Day 25 DB endpoint. See, FIG. 40, which is based on LOCF data and analyzed using Cochran-Mantel-Haenszel test controlling for analysis center and antidepressant therapy.

CN[C@]1(c2ccccc2Cl)CCCCC1=O [esketamine, (S)-2-(2-chlorophenyl)-2-(methylamino)cyclohexanone]
~11 fold: AUC-based safety margin compared with the maximum 84 mg clinical dose [2]
−4.5: MADRS Suicide Item (Suicidal Thoughts), Change from Baseline, Med ([1]; Day 25(DB): 4H) | MADRS Suicide Item (Suicidal Thoughts), Change from Baseline, Med ([1]; Day 25(DB): Predose)
−4.0: MADRS Suicide Item (Suicidal Thoughts), Change from Baseline, Med ([1]; Day 3(DB) LOCF) | MADRS Suicide Item (Suicidal Thoughts), Change from Baseline, Med ([1]; Day 3(DB)) | MADRS Suicide Item (Suicidal Thoughts), Change from Baseline, Med ([1]; Day 4(DB) LOCF) | MADRS Suicide Item (Suicidal Thoughts), Change from Baseline, Med ([1]; Day 4(DB)) | MADRS Suicide Item (Suicidal Thoughts), Change from Baseline, Med ([1]; Day 5(DB) LOCF) | MADRS Suicide Item (Suicidal Thoughts), Change from Baseline, Med ([1]; Day 5(DB)) | MADRS Suicide Item (Suicidal Thoughts), Change from Baseline, Med ([1]; Day 8(DB) LOCF) | MADRS Suicide Item (Suicidal Thoughts), Change from Baseline, Med ([1]; Day 8(DB)) | MADRS Suicide Item (Suicidal Thoughts), Change from Baseline, Med ([1]; Day 11(DB) LOCF) | MADRS Suicide Item (Suicidal Thoughts), Change from Baseline, Med ([1]; Day 11(DB)) | MADRS Suicide Item (Suicidal Thoughts), Change from Baseline, Med ([1]; Day 15(DB) LOCF) | MADRS Suicide Item (Suicidal Thoughts), Change from Baseline, Med ([1]; Day 15(DB)) | MADRS Suicide Item (Suicidal Thoughts), Change from Baseline, Med ([1]; Day 18(DB) LOCF) | MADRS Suicide Item (Suicidal Thoughts), Change from Baseline, Med ([1]; Day 18(DB)) | MADRS Suicide Item (Suicidal Thoughts), Change from Baseline, Med ([1]; Day 22(DB) LOCF) | MADRS Suicide Item (Suicidal Thoughts), Change from Baseline, Med ([1]; Day 22(DB)) | MADRS Suicide Item (Suicidal Thoughts), Change from Baseline, Med ([1]; Day 25(DB): Predose LOCF) | MADRS Suicide Item (Suicidal Thoughts), Change from Baseline, Med ([1]; Day 32(FU) LOCF) | MADRS Suicide Item (Suicidal Thoughts), Change from Baseline, Med ([1]; Day 32(FU)) | MADRS Suicide Item (Suicidal Thoughts), Change from Baseline, Med ([1]; Day 46(FU) LOCF) | MADRS Suicide Item (Suicidal Thoughts), Change from Baseline, Med ([1]; Day 46(FU)) | MADRS Suicide Item (Suicidal Thoughts), Change from Baseline, Med ([1]; Day 53(FU) LOCF) | MADRS Suicide Item (Suicidal Thoughts), Change from Baseline, Med ([1]; Day 67(FU) LOCF) | MADRS Suicide Item (Suicidal Thoughts), Change from Baseline, Med ([1]; Day 67(FU)) | MADRS Suicide Item (Suicidal Thoughts), Change from Baseline, Med ([1]; End Point(DB))
−5.0: MADRS Suicide Item (Suicidal Thoughts), Change from Baseline, Med ([1]; Day 39(FU) LOCF) | MADRS Suicide Item (Suicidal Thoughts), Change from Baseline, Med ([1]; Day 39(FU)) | MADRS Suicide Item (Suicidal Thoughts), Change from Baseline, Med ([1]; Day 53(FU)) | MADRS Suicide Item (Suicidal Thoughts), Change from Baseline, Med ([1]; Day 81(FU)) | MADRS Suicide Item (Suicidal Thoughts), Change from Baseline, Med ([1]; End Point(FU))
approximately 17 fold: Cmax-based safety margin compared with the maximum 84 mg clinical dose [2]
−3.0: MADRS Suicide Item (Suicidal Thoughts), Change from Baseline, Med ([1]; Day 1(DB): 4H LOCF) | MADRS Suicide Item (Suicidal Thoughts), Change from Baseline, Med ([1]; Day 1(DB): 4H) | MADRS Suicide Item (Suicidal Thoughts), Change from Baseline, Med ([1]; Day 2(DB) LOCF) | MADRS Suicide Item (Suicidal Thoughts), Change from Baseline, Med ([1]; Day 2(DB))

CN[C@]1(c2ccccc2Cl)CCCCC1=O [Esketamine 84 mg]
6.0 (5; 6): SIBAT Clinical Global Judgment of Suicide Risk, Median (Range) [3]
